Laboratory results: US20200069648A1, “HALOALLYLAMINE PYRAZOLE DERIVATIVE INHIBITORS OF LYSYL OXIDASES AND USES THEREOF” (Pharmaxis Ltd., priority 2017, published 2020)
Where a name gives a salt, the structure may show the parent alone.

What was measured:
Bovine LOX = target: T1, Bovine LOX (Bos taurus, UniProt P33072); test: LOX amine oxidase inhibition, peroxidase-coupled Amplex Red assay; assay type: biochemical; details: 30 min preincubation at 37° C., putrescine substrate
T1 sequence (P33072 170-418): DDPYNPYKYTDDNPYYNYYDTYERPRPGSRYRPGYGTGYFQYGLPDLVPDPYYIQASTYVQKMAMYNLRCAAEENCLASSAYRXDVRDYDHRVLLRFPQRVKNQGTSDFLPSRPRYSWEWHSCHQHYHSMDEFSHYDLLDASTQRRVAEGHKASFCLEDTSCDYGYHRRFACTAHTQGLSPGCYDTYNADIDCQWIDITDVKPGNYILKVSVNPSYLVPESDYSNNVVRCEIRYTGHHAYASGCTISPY
Excerpt: (§1) Method to Determine the Ability of Compounds of the Invention to Inhibit LOX and LOXL1-4 from Different Sources
Lysyl oxidase (LOX) is an extracellular copper dependent enzyme which oxidizes peptidyl lysine and hydroxylysine residues in collagen and lysine residues in elastin to produce peptidyl alpha-aminoadipic-delta-semialdehydes. […] There are five LOX family members; these are LOX, LOXL1, LOXL2, LOXL3 and LOXL4. LOX and LOXL family members can be acquired as recombinant active proteins from commercial sources, or extracted from animal tissues like bovine aorta, tendons, pig skin; or prepared from cell cultures. The inhibitory effects of the compounds of the present invention were tested against the given LOX-LOXL preparation using a high-throughput coupled colorimetric method (Holt A. and Palcic M., A peroxidase-coupled continuous absorbance plate-reader assay for flavin monoamine oxidases, copper-containing amine oxidases and related enzymes. Nat. Protoc. 2006; 1: 2498-2505). The assay was developed using either 384 or 96 well format. Briefly, in a standard 384 well plate assay 25 μL of a dilution of any of the isoenzymes and orthologues in 1.2 M urea, 50 mM sodium borate buffer (pH 8.2) were added into each well in the presence of 1 μM mofegiline and 0.5 mM pargyline (to inhibit SSAO and MAO-B and MAO-A, respectively). […] Twenty five μL of a reaction mixture containing twice the KM concentration of putrescine (Sigma Aldrich, e.g. 20 mM for LOX, or 10 mM for LOXL2 and LOXL3), 120 μM Amplex Red (Sigma Aldrich) and 1.5 U/mL horseradish peroxidase (Sigma Aldrich) prepared in 1.2 M urea, 50 mM sodium borate buffer (pH 8.2) were then added to the corresponding wells. The above volumes were doubled in the case of 96 wells plate. The fluorescence (RFU) was read every 2.5 min for 30 min at a range of temperatures from 37° to 45° C., excitation 565 nm and emission 590 (Optima; BMG labtech). The slope of the kinetics for each well was calculated using MARS data analysis software (BMG labtech) and this value was used to deduce the IC50 value (Dotmatics).

Human LOXL2 = target: T2, Human LOXL2 (Homo sapiens, UniProt Q9Y4K0); test: LOXL2 amine oxidase inhibition, peroxidase-coupled Amplex Red assay; assay type: biochemical; details: 30 min preincubation at 37° C., putrescine substrate
T2 sequence (Q9Y4K0 26-774): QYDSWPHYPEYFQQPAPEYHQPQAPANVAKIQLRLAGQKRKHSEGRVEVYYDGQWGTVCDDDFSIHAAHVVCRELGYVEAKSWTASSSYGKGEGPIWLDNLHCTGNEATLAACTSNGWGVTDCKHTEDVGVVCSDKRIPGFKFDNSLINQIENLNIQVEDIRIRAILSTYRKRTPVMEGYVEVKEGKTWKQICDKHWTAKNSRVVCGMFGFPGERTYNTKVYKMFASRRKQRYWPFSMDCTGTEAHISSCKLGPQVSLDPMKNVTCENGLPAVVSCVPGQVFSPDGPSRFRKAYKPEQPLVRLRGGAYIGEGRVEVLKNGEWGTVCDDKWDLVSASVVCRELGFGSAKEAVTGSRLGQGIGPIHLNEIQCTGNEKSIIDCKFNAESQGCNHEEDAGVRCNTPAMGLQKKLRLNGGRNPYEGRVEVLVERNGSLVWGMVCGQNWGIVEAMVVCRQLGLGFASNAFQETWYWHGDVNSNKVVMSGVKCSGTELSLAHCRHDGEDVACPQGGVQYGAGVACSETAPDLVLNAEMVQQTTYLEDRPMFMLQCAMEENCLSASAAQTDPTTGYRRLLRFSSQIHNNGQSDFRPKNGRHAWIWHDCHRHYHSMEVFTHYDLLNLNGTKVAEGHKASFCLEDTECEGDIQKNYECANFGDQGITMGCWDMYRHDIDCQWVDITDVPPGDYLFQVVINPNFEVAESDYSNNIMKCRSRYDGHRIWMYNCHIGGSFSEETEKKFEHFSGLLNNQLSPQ
Excerpt: as §1
Lysyl oxidase (LOX) is an extracellular copper dependent enzyme which oxidizes peptidyl lysine and hydroxylysine residues in collagen and lysine residues in elastin to produce peptidyl alpha-aminoadipic-delta-semialdehydes. […] There are five LOX family members; these are LOX, LOXL1, LOXL2, LOXL3 and LOXL4. LOX and LOXL family members can be acquired as recombinant active proteins from commercial sources, or extracted from animal tissues like bovine aorta, tendons, pig skin; or prepared from cell cultures. The inhibitory effects of the compounds of the present invention were tested against the given LOX-LOXL preparation using a high-throughput coupled colorimetric method (Holt A. and Palcic M., A peroxidase-coupled continuous absorbance plate-reader assay for flavin monoamine oxidases, copper-containing amine oxidases and related enzymes. Nat. Protoc. 2006; 1: 2498-2505). The assay was developed using either 384 or 96 well format. Briefly, in a standard 384 well plate assay 25 μL of a dilution of any of the isoenzymes and orthologues in 1.2 M urea, 50 mM sodium borate buffer (pH 8.2) were added into each well in the presence of 1 μM mofegiline and 0.5 mM pargyline (to inhibit SSAO and MAO-B and MAO-A, respectively). Test compounds were dissolved in DMSO and tested in a Concentration Response Curve (CRC) with 11 data points, typically in the micromolar or nanomolar range after incubation with the enzyme for 30 min at 37° C. Twenty five μL of a reaction mixture containing twice the KM concentration of putrescine (Sigma Aldrich, e.g. 20 mM for LOX, or 10 mM for LOXL2 and LOXL3), 120 μM Amplex Red (Sigma Aldrich) and 1.5 U/mL horseradish peroxidase (Sigma Aldrich) prepared in 1.2 M urea, 50 mM sodium borate buffer (pH 8.2) were then added to the corresponding wells. The above volumes were doubled in the case of 96 wells plate. The fluorescence (RFU) was read every 2.5 min for 30 min at a range of temperatures from 37° to 45° C., excitation 565 nm and emission 590 (Optima; BMG labtech). The slope of the kinetics for each well was calculated using MARS data analysis software (BMG labtech) and this value was used to deduce the IC50 value (Dotmatics).

| IC50 (Bovine LOX) | IC50 (Human LOXL2) | Structure (SMILES) |
| --- | --- | --- |
| < 10 µM | < 1 µM | Cc1nn(Cc2ccc(S(=O)(=O)N(C)C)cc2Cl)c(C)c1C/C(F)=C/CN [Compound 47, (Z)-4-((4-(4-amino-2-fluorobut-2-en-1-yl)-3,5-dimethyl-1H-pyrazol-1-yl)methyl)-3-chloro-N,N-dimethylbenzenesulfonamide hydrochloride] |
| < 10 µM | < 1 µM | Cc1nn(Cc2ccc(S(=O)(=O)N(C)C)c(Cl)c2)c(C(C)O)c1C/C(F)=C/CN (stereo not drawn) [Compound 63, (Z)-4-((4-(4-amino-2-fluorobut-2-en-1-yl)-5-(l-hydroxyethyl)-3-methyl-1H-pyrazol-1-yl)methyl)-2-chloro-N,N-dimethylbenzenesulfonamide hydrochloride] |
| < 10 µM | < 1 µM | Cc1nn(C/C(F)=C/CN)c(C(C)C)c1Cc1ccc(S(C)(=O)=O)nc1 [Compound 43, (Z)-3-fluoro-4-(5-isopropyl-3-methyl-4-((6-(methylsulfonyl)pyridin-3-yl)methyl)-1H-pyrazol-1-yl)but-2-en-1-amine dihydrochloride] |
| < 10 µM | < 1 µM | Cc1nn(C/C(F)=C/CN)c(C)c1Cc1ccc(S(=O)(=O)C(C)C)c(Cl)c1 [Compound 49, (Z)-4-(4-(3-chloro-4-(isopropylsulfonyl)benzyl)-3,5-dimethyl-1H-pyrazol-1-yl)-3-fluorobut-2-en-1-amine hydrochloride] |
| > 10 µM | < 1 µM | CC(C)c1nn(C/C(F)=C/CN)c(C(C)O)c1Cc1ccc(S(=O)(=O)N(C)C)cc1Cl (centres unmarked) [Compound 58, (Z)-4-((1-(4-amino-2-fluorobut-2-en-1-yl)-5-(1-hydroxyethyl)-3-isopropyl-1H-pyrazol-4-yl)methyl)-3-chloro-N,N-dimethylbenzenesulfonamide hydrochloride] |
| < 10 µM | < 1 µM | Cc1nn(C/C(F)=C/CN)c(C)c1Cc1ccc(S(=O)(=O)C(F)(F)F)cc1 [Compound 44, (Z)-4-(3,5-dimethyl-4-(4-((trifluoromethyl)sulfonyl)benzyl)-1H-pyrazol-1-yl)-3-fluorobut-2-en-1-amine hydrochloride] |
| > 10 µM | > 1 µM | Cc1nn(C/C(F)=C/CN)c(C(C)(C)O)c1Cc1ccc(S(=O)(=O)N(C)C)c(Cl)c1 [Compound 54, (Z)-4-((1-(4-amino-2-fluorobut-2-en-1-yl)-5-(2-hydroxypropan-2-yl)-3-methyl-1H-pyrazol-4-yl)methyl)-2-chloro-N,N-dimethylbenzenesulfonamide hydrochloride] |
| < 10 µM | < 1 µM | Cc1c(Cc2ccc(S(=O)(=O)N(C)C)c(Cl)c2)c(Cl)nn1C/C(F)=C/CN [Compound 42, (Z)-4-((1-(4-amino-2-fluorobut-2-en-1-yl)-3-chloro-5-methyl-1H-pyrazol-4-yl)methyl)-2-chloro-N,N-dimethylbenzenesulfonamide] |
| < 10 µM | < 1 µM | Cc1c(Cc2ccc(S(=O)(=O)N(C)C)c(Cl)c2)c(C(F)(F)F)nn1C/C(F)=C/CN [Compound 57, (Z)-4-((1-(4-amino-2-fluorobut-2-en-1-yl)-5-methyl-3-(trifluoromethyl)-1H-pyrazol-4-yl)methyl)-2-chloro-N,N-dimethylbenzenesulfonamide hydrochloride] |

The next lines start with the molecule.

| Structure (SMILES) | IC50 (Bovine LOX) | IC50 (Human LOXL2) |
| --- | --- | --- |
| COCc1nn(C/C(F)=C/CN)c(C)c1Cc1ccc(S(=O)(=O)N(C)C)c(Cl)c1 [Compound 39, (Z)-4-((1-(4-amino-2-fluorobut-2-en-1-yl)-3-(methoxymethyl)-5-methyl-1H-pyrazol-4-yl)methyl)-2-chloro-N,N-dimethylbenzenesulfonamide] | < 10 µM | < 1 µM |
| Cc1c(-c2cccc(S(=O)(=O)N(C)C)c2)c(Cl)nn1C/C(F)=C/CN [Compound 34, (Z)-3-(1-(4-amino-2-fluorobut-2-en-1-yl)-3-chloro-5-methyl-1H-pyrazol-4-yl)-N,N-dimethylbenzenesulfonamide hydrochloride] | < 10 µM | < 1 µM |
| COCc1c(Cc2ccc(S(=O)(=O)N(C)C)c(Cl)c2)c(C)nn1C/C(F)=C/CN [Compound 38, (Z)-4-((1-(4-amino-2-fluorobut-2-en-1-yl)-5-(methoxymethyl)-3-methyl-1H-pyrazol-4-yl)methyl)-2-chloro-N,N-dimethylbenzenesulfonamide] | < 10 µM | < 1 µM |
| Cc1nn(C/C(F)=C/CN)c(Cl)c1Cc1ccc(S(=O)(=O)N(C)C)c(Cl)c1 [Compound 41, (Z)-4-((1-(4-amino-2-fluorobut-2-en-1-yl)-5-chloro-3-methyl-1H-pyrazol-4-yl)methyl)-2-chloro-N,N-dimethylbenzenesulfonamide] | < 10 µM | < 1 µM |
| Cc1nn(C/C(F)=C/CN)c(C)c1-c1cccc(S(=O)(=O)N(C)C)c1 [Compound 33, (Z)-3-(1-(4-amino-2-fluorobut-2-en-1-yl)-3,5-dimethyl-1H-pyrazol-4-yl)-N,N-dimethylbenzenesulfonamide] | < 10 µM | < 1 µM |
| Cc1c(Cc2ccc(S(=O)(=O)N(C)C)c(Cl)c2)c(C(C)O)nn1C/C(F)=C/CN (centres unmarked) [Compound 37, (Z)-4-((1-(4-amino-2-fluorobut-2-en-1-yl)-3-(1-hydroxyethyl)-5-methyl-1H-pyrazol-4-yl)methyl)-2-chloro-N,N-dimethylbenzenesulfonamide] | < 10 µM | < 1 µM |
| Cc1nn(C/C(F)=C/CN)c(C)c1Oc1ccc(S(=O)(=O)N(C)C)c(Cl)c1 [Compound 40, (Z)-4-((1-(4-amino-2-fluorobut-2-en-1-yl)-3,5-dimethyl-1H-pyrazol-4-yl)oxy)-2-chloro-N,N-dimethylbenzenesulfonamide] | < 10 µM | < 1 µM |
